In US4883796A, “Oxime ethers of 2,6-dioxabicyclo(3.3.0)octanones, and compositions and methods for treatment of a cardiac disease or circulatory with them” (Heinrich Mack Nachf., priority 1987, dated 1989):

Tests used:
isolated aorta strips [1] = assay: inhibition of potassium chloride-induced contractions on isolated aorta strips, rat; type: cell-based; details: read-out: ED50, inhibition of potassium chloride-induced contractions
isolated aorta strips [2] = assay: inhibition of potassium chloride-induced contractions on isolated aorta strips, rabbit; type: cell-based; details: read-out: ED50, inhibition of potassium chloride-induced contractions
[3] = Influence on systolic arterial pressure and heart rate of conscious normotensive beagle dogs, perorally; type: in vivo
Procedure: Influence on the systolic arterial pressure (SAP) and the heart rate
(HR) of concious normotensive beagle dogs. Substance was administered

[4] = orientating toxicity, mice, perorally; details: mouse, in vivo, po, read-out: dose withstood without clinical symptoms and without fatalities
[5] = Reduction of the arterial mean pressure in narcotised rabbits, i.d.; type: in vivo; details: Oryctolagus cuniculus, intraduodenal, read-out: ED30 (mmHg), reduction of the arterial mean pressure
Procedure: Reduction of the arterial mean pressure in narcotised rabbits.
The substance was administered i.d.

[6] = tested on: Lypressin-induced T-wave elevation in the ECG; assay: Influence on the Lypressin-induced T-wave elevation in the ECG of narcotised rats; type: in vivo; details: for ED50: Rattus norvegicus, po, 0.25 h, perorally 15 minutes before Lypressin; for Length of action at ED50-Dose: perorally
Procedure: Influence on the T-wave elevation in the ECG of narcotised
rats, which was induced by intravenous bolus injection of
Lypressin. The substances were administered perorally 15
minutes and at various times before the Lypressin injection

Isoprenaline tachycardia = assay: Inhibition of Isoprenaline tachycardia in narcotised, despinalised rats; type: in vivo; details: Rattus norvegicus, prophylactic
Excerpt: Inhibition of Isoprenaline tachycardia in narcotised,
despinalised rats after prophylactic, intravenous or
intraduodenal application

[7] = Cardiovascular effects after intravenous administration to narcotised rats with opened thorax and artificial respiration; type: in vivo; details: 1.0 mg/kg i.v.
Excerpt: |Cardiovascular effects of the compound of example 3 after intravenous |administration to narcotised rats (Pentobarbital) with opened thorax and |artificial respiration.

[8] = Cardiovascular effects after i.d. administration to narcotised rats with opened thorax and artificial respiration; type: in vivo; details: 30 mg/kg i.d.
Excerpt: |Cardiovascular effects of example 3 after i.d. administration to |narcotised rats (Pentobarbital) with opened thorax and artificial |respiration.

SMILES: CC(C)NCC(O)CON=C1CO[C@H]2[C@@H]1OC[C@H]2O[N+](=O)[O-] (stereo partly drawn) [Example 1, 4-(2-Hydroxy-3-isopropylamino-propyl)-oximino-2,6-dioxabicyclo[3.3.0]octan-8-endo-ol-nitrate]
- IC50 (isolated aorta strips [1]): 24 µM
- IC50 (isolated aorta strips [2]; Oryctolagus cuniculus): 5.9 µM
- HR changes ([3]; 10.0 mg/kg perorally, 0.5 h): -15 ± 3 Schl/M
- SAP changes ([3]; 10.0 mg/kg perorally, 0.5 h): -36 ± 2 mmHg
- HR (heart rate) ([3]; 10.0 mg/kg perorally, 0.5 h, 0 h value 88 ± 3): 73 ± 3 Schl/M
- SAP (systolic arterial pressure) ([3]; 10.0 mg/kg perorally, 0.5 h, 0 h value 134 ± 3): 98 ± 3 mmHg
- HR changes ([3]; 10.0 mg/kg perorally, 1 h): -16 ± 4 Schl/M
- SAP changes ([3]; 10.0 mg/kg perorally, 1 h): -32 ± 2 mmHg
- HR (heart rate) ([3]; 10.0 mg/kg perorally, 1 h, 0 h value 88 ± 3): 72 ± 5 Schl/M
- SAP (systolic arterial pressure) ([3]; 10.0 mg/kg perorally, 1 h, 0 h value 134 ± 3): 102 ± 4 mmHg
- HR changes ([3]; 10.0 mg/kg perorally, 2 h): -14 ± 2 Schl/M
- SAP changes ([3]; 10.0 mg/kg perorally, 2 h): -20 ± 1 mmHg
- HR (heart rate) ([3]; 10.0 mg/kg perorally, 2 h, 0 h value 88 ± 3): 74 ± 6 Schl/M
- SAP (systolic arterial pressure) ([3]; 10.0 mg/kg perorally, 2 h, 0 h value 134 ± 3): 114 ± 3 mmHg
- HR changes ([3]; 10.0 mg/kg perorally, 3 h): -10 ± 3 Schl/M
- SAP changes ([3]; 10.0 mg/kg perorally, 3 h): -16 ± 2 mmHg
- HR (heart rate) ([3]; 10.0 mg/kg perorally, 3 h, 0 h value 88 ± 3): 78 ± 4 Schl/M
- SAP (systolic arterial pressure) ([3]; 10.0 mg/kg perorally, 3 h, 0 h value 134 ± 3): 118 ± 3 mmHg
- HR changes ([3]; 10.0 mg/kg perorally, 4 h): -9 ± 2 Schl/M
- SAP changes ([3]; 10.0 mg/kg perorally, 4 h): -19 ± 3 mmHg
- HR (heart rate) ([3]; 10.0 mg/kg perorally, 4 h, 0 h value 88 ± 3): 79 ± 5 Schl/M
- SAP (systolic arterial pressure) ([3]; 10.0 mg/kg perorally, 4 h, 0 h value 134 ± 3): 115 ± 3 mmHg
- NOAEL [4]: 500 mg/kg
- ED (30 mmHg) [5]: 24.2 mg/kg
- ED50 [6]: 53.8 mg/kg
- Length of action at ED50-Dose [6]: 240 min
- ED50 (Isoprenaline tachycardia; iv): 11 mg/kg
- ED50 (Isoprenaline tachycardia; i.d.): 82.6 mg/kg

SMILES: CC(C)NCC(O)CON=C1COC2C(O[N+](=O)[O-])COC12 (stereo not drawn) [Example 2, 4-(2-Hydroxy-3-isopropylamino-propyl)-oximino-2,6-dioxabicyclo[3.3.0]octan-8-exo-ol-nitrate]
- IC50 (isolated aorta strips [1]): 472 µM
- IC50 (isolated aorta strips [2]): 4000 µM

SMILES: CC(C)(C)NCC(O)CON=C1CO[C@H]2[C@@H]1OC[C@H]2O[N+](=O)[O-] (stereo partly drawn) [Example 3, 4-(3-tert.-Butylamino-2-hydroxy-propyl)-oximino-2,6-dioxabicyclo[3.3.0]octan-8-endo-ol-nitrate]
- BAF, changes [7]: -34 ± 5 mL/min
- BAF, length of action [7]: 109 min
- BAF, maximum efficacy [7]: 1.3 ± 0.3 min
- CO, changes [7]: -0.09 ± 0.02 L/min
- CO, length of action [7]: 113 ± 21 min
- CO, maximum efficacy [7]: 5 ± 2 min
- HR changes [7]: -13 ± 10 beats/min
- HR, length of action [7]: > 114 min
- HR, maximum efficacy [7]: 7 ± 3 min
- LV dp/dt, changes [7]: -811 ± 116 mmHg/s
- LV dp/dt, length of action [7]: 107 ± 12 min
- LV dp/dt, maximum efficacy [7]: 6.8 ± 5 min
- LVEDP, changes [7]: 0.7 ± 0.7 mmHg
- LVEDP, length of action [7]: 51 ± 28 min
- LVEDP, maximum efficacy [7]: 9.3 ± 8 min
- LVP, changes [7]: -38 ± 2 mmHg
- LVP, length of action [7]: 103 ± 28 min
- LVP, maximum efficacy [7]: 1.7 ± 0.4 min
- MAP, changes [7]: -36 ± 20 mmHg
- MAP, length of action [7]: 111 ± 15 min
- MAP, maximum efficacy [7]: 1.2 ± 0.0 min
- PAP, changes [7]: -5 ± 2 mmHg
- PAP, length of action [7]: 50 ± 18 min
- PAP, maximum efficacy [7]: 3.0 ± 0.1 min
- SV, changes [7]: +0.3 ± 0.5 ml/min
- SV, length of action [7]: 31 ± 24 min
- SV, maximum efficacy [7]: 2 ± 1 min
- TPVR, changes [7]: -43 ± 4 mmHg/ml
- TPVR, length of action [7]: 13 ± 8 min
- TPVR, maximum efficacy [7]: 1.0 ± 1.0 min
- CO (cardiac minute volume), efficacy of the substance ([7]; previous value 0.83 ± 0.04): 0.74 ± 0.08 L/min
- LVEDP (left ventricular end diastolic pressure), efficacy of the substance ([7]; previous value 3.8 ± 1.0): 3.1 ± 1.0 mmHg
- SV (cardiac output), efficacy of the substance ([7]; previous value 6.0 ± 0.4): 6.3 ± 0.6 mL/min
- PAP (blood pressure in the A. pulmonalis), efficacy of the substance ([7]; previous value 22 ± 3): 17 ± 2 mmHg
- BAF (blood flow in the A femoralis), efficacy of the substance ([7]; previous value 73 ± 16): 40 ± 11 mL/min
- MAP (mean arterial blood pressure), efficacy of the substance ([7]; previous value 117 ± 5): 81 ± 5 mmHg
- LVP (left ventricular blood pressure), efficacy of the substance ([7]; previous value 130 ± 12): 92 ± 12 mmHg
- HR (cardiac frequency), efficacy of the substance ([7]; previous value 140 ± 8): 127 ± 4 beats/min
- TPVR (total peripheral vascular resistence), efficacy of the substance ([7]; previous value 142 ± 9): 99 ± 6 mmHg/ml
- LV dp/dt (maximum left ventricular pressure increase rate), efficacy of the substance ([7]; previous value 2558 ± 141): 1747 ± 84 mmHg/s
- HR changes ([3]; 5.0 mg/kg perorally, 0.5 h): -13 ± 2 Schl/M
- SAP changes ([3]; 5.0 mg/kg perorally, 0.5 h): -28 ± 6 mmHg
- HR (heart rate) ([3]; 5.0 mg/kg perorally, 0.5 h, 0 h value 95 ± 8): 82 ± 7 Schl/M
- SAP (systolic arterial pressure) ([3]; 5.0 mg/kg perorally, 0.5 h, 0 h value 137 ± 7): 109 ± 4 mmHg
- HR changes ([3]; 5.0 mg/kg perorally, 1 h): -20 ± 5 Schl/M
- SAP changes ([3]; 5.0 mg/kg perorally, 1 h): -31 ± 5 mmHg
- HR (heart rate) ([3]; 5.0 mg/kg perorally, 1 h, 0 h value 95 ± 8): 75 ± 5 Schl/M
- SAP (systolic arterial pressure) ([3]; 5.0 mg/kg perorally, 1 h, 0 h value 137 ± 7): 106 ± 2 mmHg
- HR changes ([3]; 5.0 mg/kg perorally, 2 h): -24 ± 6 Schl/M
- SAP changes ([3]; 5.0 mg/kg perorally, 2 h): -21 ± 2 mmHg
- HR (heart rate) ([3]; 5.0 mg/kg perorally, 2 h, 0 h value 95 ± 8): 70 ± 6 Schl/M
- SAP (systolic arterial pressure) ([3]; 5.0 mg/kg perorally, 2 h, 0 h value 137 ± 7): 116 ± 5 mmHg
- HR changes ([3]; 5.0 mg/kg perorally, 3 h): -19 ± 5 Schl/M
- SAP changes ([3]; 5.0 mg/kg perorally, 3 h): -15 ± 4 mmHg
- HR (heart rate) ([3]; 5.0 mg/kg perorally, 3 h, 0 h value 95 ± 8): 76 ± 4 Schl/M
- SAP (systolic arterial pressure) ([3]; 5.0 mg/kg perorally, 3 h, 0 h value 137 ± 7): 122 ± 4 mmHg
- HR changes ([3]; 5.0 mg/kg perorally, 4 h): -14 ± 4 Schl/M
- SAP changes ([3]; 5.0 mg/kg perorally, 4 h): -9 ± 3 mmHg
- HR (heart rate) ([3]; 5.0 mg/kg perorally, 4 h, 0 h value 95 ± 8): 81 ± 4 Schl/M
- SAP (systolic arterial pressure) ([3]; 5.0 mg/kg perorally, 4 h, 0 h value 137 ± 7): 128 ± 7 mmHg
- NOAEL [4]: 500 mg/kg
- ED (30 mmHg) [5]: 22.8 mg/kg
- BAF, changes [8]: -23 ± 5 mL/min
- BAF, length of action [8]: > 167 min
- BAF, maximum efficacy [8]: 42 ± 8 min
- CO, changes [8]: -0.09 ± 0.02 L/min
- CO, length of action [8]: > 167 min
- CO, maximum efficacy [8]: 62 ± 8 min
- HR changes [8]: -23 ± 4 beats/min
- HR, length of action [8]: > 167 min
- HR, maximum efficacy [8]: 78 ± 44 min
- LV dp/dt, changes [8]: -879 ± 90 mmHg/s
- LV dp/dt, length of action [8]: > 132 min
- LV dp/dt, maximum efficacy [8]: 76 ± 10 min
- LVEDP, changes [8]: -2.3 ± 0.9 mmHg
- LVEDP, length of action [8]: 77 ± 8 min
- LVEDP, maximum efficacy [8]: 38 ± 27 min
- LVP, changes [8]: -38 ± 11 mmHg
- LVP, length of action [8]: > 153 min
- LVP, maximum efficacy [8]: 65 ± 17 min
- MAP, changes [8]: -25 ± 4 mmHg
- MAP, length of action [8]: > 167 min
- MAP, maximum efficacy [8]: 58 ± 12 min
- PAP, changes [8]: -4.3 ± 5 mmHg
- PAP, length of action [8]: 111 ± 16 min
- PAP, maximum efficacy [8]: 33 ± 11 min
- SV, changes [8]: +0.5 ± 0.07 ml/min
- SV, length of action [8]: > 167 min
- SV, maximum efficacy [8]: 33 ± 3 min
- TPVR, changes [8]: -23 ± 3 mmHg/ml
- TPVR, length of action [8]: > 136 min
- TPVR, maximum efficacy [8]: 39 ± 5 min
- CO (cardiac minute volume), efficacy of the substance ([8]; previous value 0.75 ± 0.03): 0.66 ± 0.05 L/min
- LVEDP (left ventricular end diastolic pressure), efficacy of the substance ([8]; previous value 3.8 ± 1): 1.5 ± 2 mmHg
- SV (cardiac output), efficacy of the substance ([8]; previous value 5.3 ± 0.4): 5.8 ± 0.3 mL/min
- PAP (blood pressure in the A. pulmonalis), efficacy of the substance ([8]; previous value 22.8 ± 6): 18.5 ± 7 mmHg
- BAF (blood flow in the A femoralis), efficacy of the substance ([8]; previous value 70 ± 4): 47 ± 23 mL/min
- MAP (mean arterial blood pressure), efficacy of the substance ([8]; previous value 116 ± 7): 91 ± 12 mmHg
- LVP (left ventricular blood pressure), efficacy of the substance ([8]; previous value 133 ± 9): 95 ± 10 mmHg
- HR (cardiac frequency), efficacy of the substance ([8]; previous value 142 ± 5): 119 ± 7 beats/min
- TPVR (total peripheral vascular resistence), efficacy of the substance ([8]; previous value 155 ± 8): 132 ± 10 mmHg/ml
- LV dp/dt (maximum left ventricular pressure increase rate), efficacy of the substance ([8]; previous value 2345 ± 100): 1466 ± 189 mmHg/s
- ED50 [6]: 50.8 mg/kg
- Length of action at ED50-Dose [6]: 240 min
- ED50 (Isoprenaline tachycardia; iv): 4.6 mg/kg
- ED50 (Isoprenaline tachycardia; i.d.): 74.6 mg/kg
